# According to publication PMC7153038, “Pharmacologic inhibition of RGD‐binding integrins ameliorates fibrosis and improves function following kidney injury” (Physiological Reports, 2020):
# Test system: kidney gene expression
# Experiment: aristolochic acid kidney injury model, kidney RNA sequencing
# Type: in vivo, mouse
# Conditions: AA-injured, 100 mg/kg/day s.c. minipump; for Fold change of Pdgfra by RNA‐seq, AA + CWHM-12: vehicle 5.02; for Fold change of Pdgfrb by RNA‐seq, AA + CWHM-12: vehicle 6.79
# Procedure: Alzet osmotic minipumps (Cupertino, CA) were implanted subcutaneously in 8‐ to 10‐week‐old wild‐type male ICR outbred mice (Envigo) one day prior to induction of kidney injury to deliver vehicle (DMSO/H2O 1:1) or CWHM‐12 at a dose of 100 mg/kg per day. A single 5 mg/kg dose of aristolochic acid I sodium salt (Sigma‐Aldrich, A9451) in PBS was administered intraperitoneally to induce kidney injury, and mice were monitored daily for 27 days thereafter. Control (uninjured) mice were injected with an equal volume of PBS. Blood was obtained by maxillary vein puncture on days 0, 5 (peak injury), and 28 (study endpoint). For testing CWHM‐680, oral gavage (100 mg/kg per day) was started one day prior to injection of aristolochic acid I sodium salt and continued once daily until the study endpoint. Blood was obtained at days 0, 7, and 23 (study endpoint). […] Serum creatinine was measured by liquid chromatography–mass spectrometry (LC–MS/MS) at the University of Alabama O’Brien Center Bioanalytical Core. CWHM‐12 and CWHM‐680 concentrations were measured in plasma samples by liquid chromatography–tandem mass spectrometry (LC/MS/MS) using compound spiked into control plasma as a standard. All experiments were performed under protocols approved by the Institutional Animal Care and Use Committee at St. Louis University.
# Total RNA was isolated from four kidneys from each of the three study groups using the RNeasy Plus Mini Kit (Qiagen). The groups were as follows: (a) aristolochic acid plus vehicle, (b) aristolochic acid plus CWHM‐12, and (c) PBS plus vehicle. After ribosomal depletion, we constructed barcoded sequencing libraries using the Ion Total RNA‐seq v2 kits (Life Technologies) according to the manufacturer's instructions. Sequencing was performed on an Ion Torrent Proton with mean read lengths of 85–110 nucleotides, and reads were aligned to the mouse mm10 genome using the TMAP aligner map4 algorithm. Soft clipping at both 5′ and 3′ ends of the reads was permitted during alignment to accommodate spliced reads, with a minimum seed length of 20 nucleotides. Genome‐wide strand‐specific nucleotide coverages were calculated from the aligned bam files for each sample using the “genomecoveragebed” program in BEDTools (Quinlan & Hall, 2010), and the nucleotide coverage for all nonredundant exons for each gene was summed using custom R scripts (http://www.Rproject.org). Normalization factors were calculated by averaging the total exon coverage for all replicates and dividing this average by the total exon coverage for each individual sample. The total coverage for each gene in each replicate was then multiplied by these factors after adding an offset of 1 to each gene to preclude division by 0 in subsequent calculations. The averages and p values of the coverage values for all genes in the individual groups were calculated using Microsoft Excel, using a two‐tailed t‐test. The expression values for each gene are the normalized strand‐specific total nucleotide coverage for each gene. The complete data set can be accessed at https://figshare.com/s/54c7f78b4523873e9b00.
# [1] = relative to uninjured, 100 mg/kg/day
# [2] = relative to uninjured, listed as CWHM−12, 100 mg/kg/day
smiles,measurement,setting,value
CC(C)(C)c1cc(Br)cc([C@H](CC(=O)O)NC(=O)CNC(=O)c2cc(O)cc(NC3=NCC(O)CN3)c2)c1 (some centres unmarked) [CWHM‐12],Acta2 RNA‐seq ratio AA + CWHM-12/AA + Vehicle,,0.8473
same,Aldh1a2 RNA‐seq ratio AA + CWHM-12/AA + Vehicle,,0.6492
same,Col1a1 RNA‐seq ratio AA + CWHM-12/AA + Vehicle,,0.2480
same,Col3a1 RNA‐seq ratio AA + CWHM-12/AA + Vehicle,,0.3560
same,Col5a3 RNA‐seq ratio AA + CWHM-12/AA + Vehicle,,0.5587
same,Crlf1 RNA‐seq ratio AA + CWHM-12/AA + Vehicle,,0.1032
same,Ctgf RNA‐seq ratio AA + CWHM-12/AA + Vehicle,,0.5510
same,"Egf expression increase in injured animals, RNA-seq",,twofold
same,Fbln2 RNA‐seq ratio AA + CWHM-12/AA + Vehicle,,0.5262
same,Fn1 RNA‐seq ratio AA + CWHM-12/AA + Vehicle,,0.5243
same,Foxd1 RNA‐seq ratio AA + CWHM-12/AA + Vehicle,,0.3427
same,Gda RNA‐seq ratio AA + CWHM-12/AA + Vehicle,,0.6302
same,Gli1 RNA‐seq ratio AA + CWHM-12/AA + Vehicle,,0.4486
same,Gli2 RNA‐seq ratio AA + CWHM-12/AA + Vehicle,,0.8986
same,Gli3 RNA‐seq ratio AA + CWHM-12/AA + Vehicle,,0.6039
same,Mmp2 RNA‐seq ratio AA + CWHM-12/AA + Vehicle,,0.4013
same,"NGAL (Lcn2) expression decrease vs vehicle-treated injured mice, RNA-seq",,50%
same,Nes RNA‐seq ratio AA + CWHM-12/AA + Vehicle,,0.4461
same,Pdgfra RNA‐seq ratio AA + CWHM-12/AA + Vehicle,,0.7298
same,Pdgfrb RNA‐seq ratio AA + CWHM-12/AA + Vehicle,,0.4393
same,Rgs16 RNA‐seq ratio AA + CWHM-12/AA + Vehicle,,0.4692
same,Shroom3 RNA‐seq ratio AA + CWHM-12/AA + Vehicle,,0.5633
same,Tgfb1 RNA‐seq ratio AA + CWHM-12/AA + Vehicle,,0.5715
same,Tgfb2 RNA‐seq ratio AA + CWHM-12/AA + Vehicle,,0.8306
same,Tgfb3 RNA‐seq ratio AA + CWHM-12/AA + Vehicle,,0.5937
same,Thbs2 RNA‐seq ratio AA + CWHM-12/AA + Vehicle,,0.5603
same,Thbs4 RNA‐seq ratio AA + CWHM-12/AA + Vehicle,,0.4558
same,"reduction of Myc expression, RNA-seq",,35%
same,"reduction of upregulation of eight keratin genes (Krt 7, 8, 15, 18–20, 23, 80), RNA-seq",,15%–50%
same,"decrease of Sox9 induction, RNA-seq",induction 45-fold with vehicle,57%
same,"Fold change of Gli2 by RNA‐seq, AA + CWHM-12","relative to uninjured, vehicle 0.87",0.78 fold
same,"Fold change of Acta2 by RNA‐seq, AA + CWHM-12","relative to uninjured, vehicle 3.7",3.2 fold
same,"Fold change of Shroom3 by RNA‐seq, AA + CWHM-12","relative to uninjured, vehicle 3.9",2.2 fold
same,"Fold change of Tgfb2 by RNA‐seq, AA + CWHM-12","relative to uninjured, vehicle 4.9",4.1 fold
same,"Fold change of Pdgfra by RNA‐seq, AA + CWHM-12",[1],3.7 fold
same,"Fold change of Pdgfra by RNA‐seq, AA + CWHM-12",[2],3.66 fold
same,"Fold change of Fbln2 by RNA‐seq, AA + CWHM-12","relative to uninjured, vehicle 5.78",3.04 fold
same,"Fold change of Col5a3 by RNA‐seq, AA + CWHM-12","relative to uninjured, vehicle 5.81",3.25 fold
same,"Fold change of Ctgf by RNA‐seq, AA + CWHM-12","relative to uninjured, vehicle 6.4",3.5 fold
same,"Fold change of Pdgfrb by RNA‐seq, AA + CWHM-12",[1],3.0 fold
same,"Fold change of Pdgfrb by RNA‐seq, AA + CWHM-12",[2],2.98 fold
